In patent US12325710B2, “Substituted 1,2,3,4,5,6-hexahydroazepino[4,5-b]indoles for treating brain disorders” (priority 2019, dated 2025):

Legend:
5-HT2B receptors = 5-HT2B receptors (Homo sapiens, UniProt P41595); experiment: 5-HT2B Gq-mediated calcium flux functional assay; type: cell-based
Protocol: Serotonin and Opioid Receptor Functional Assays. Functional assay screens at 5-HT and opioid receptors were performed in parallel using the same compound dilutions and 384-well format high-throughput assay platforms. Assays assessed activity at all human isoforms of the receptors, except where noted for the mouse 5-HT2A receptor. Receptor constructs in pcDNA vectors were generated from the Presto-Tango GPCR library with minor modifications. All compounds were serially diluted in drug buffer (HBSS, 20 mM HEPES, pH 7.4 supplemented with 0.1% bovine serum albumin and 0.01% ascorbic acid) and dispensed into 384-well assay plates using a FLIPR^TETRA (Molecular Devices). Every plate included a positive control such as 5-HT (for all 5-HT receptors), DADLE (DOR), salvinorin A (KOR), and DAMGO (MOR). For measurements of 5-HT2A, 5-HT2B, and 5-HT2C Gq-mediated calcium flux function, HEK Flp-In 293 T-Rex stable cell lines (Invitrogen) were loaded with Fluo-4 dye for one hour, stimulated with compounds and read for baseline (0-10 seconds) and peak fold-over-basal fluorescence (5 minutes) at 25° C. on the FLIPR^TETRA. For measurement of 5-HT6 and 5-HT7a functional assays, Gs-mediated cAMP accumulation was detected using the split-luciferase GloSensor assay in HEKT cells measuring luminescence on a Microbeta Trilux (Perkin Elmer) with a 15 min drug incubation at 25° C. For 5-HT1A, 5-HT1B, 5-HT1F, MOR, KOR, and DOR functional assays, Gi/o-mediated cAMP inhibition was measured using the split-luciferase GloSensor assay in HEKT cells, conducted similarly as above, but in combination with either 0.3 μM isoproterenol (5-HT1A, 5-HT1B, 5-HT1F) or 1 μM forskolin (MOR, KOR, and DOR) to stimulate endogenous cAMP accumulation. For measurement of 5-HT1D, 5-HT1E, 5-HT4, and 5-HT5A functional assays, β-arrestin2 recruitment was measured by the Tango assay utilizing HTLA cells expressing TEV fused-β-arrestin2, as described previously with minor modifications. […]

C57BL/6J mice = experiment: Head-twitch response (HTR) assay; conditions: intraperitoneal; fumarate salts; 5-MeO-DMT 10 mg/kg as positive control

Sequence of 5-HT2B receptors (P41595 whole entry, canonical isoform): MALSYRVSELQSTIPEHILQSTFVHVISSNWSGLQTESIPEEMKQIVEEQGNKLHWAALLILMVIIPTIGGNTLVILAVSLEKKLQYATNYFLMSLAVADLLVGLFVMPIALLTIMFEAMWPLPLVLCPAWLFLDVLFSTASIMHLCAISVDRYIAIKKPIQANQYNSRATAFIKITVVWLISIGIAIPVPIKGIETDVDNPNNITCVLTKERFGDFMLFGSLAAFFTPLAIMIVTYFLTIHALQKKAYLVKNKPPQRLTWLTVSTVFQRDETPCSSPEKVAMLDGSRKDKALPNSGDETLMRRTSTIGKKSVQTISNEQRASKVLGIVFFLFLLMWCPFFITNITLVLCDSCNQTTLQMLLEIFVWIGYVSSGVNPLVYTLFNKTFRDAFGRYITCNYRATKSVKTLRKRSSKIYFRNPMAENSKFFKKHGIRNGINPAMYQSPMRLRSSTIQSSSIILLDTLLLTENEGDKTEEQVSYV

Structure (SMILES): COc1ccc2c3c([nH]c2c1)CCN(C)CC3 [TBG]
- activity mode at 5-HT2B receptors (5-HT2B receptors): antagonists
- hallucinogenic potential (head-twitch response) (C57BL/6J mice): did not display hallucinogenic potential
